These results are taken from patent publication US9301962B2, “Male contraceptive compositions and methods of use” (Baylor College of Medicine, priority 2010, dated 2016).

The target in one data set is BRDT(1) (Homo sapiens, UniProt Q58F21). The conditions noted are these: alpha-screen, H4Kac4 competition. A general note: In Alpha technology, singlet oxygen from a donor bead excites a nearby acceptor bead.
Data set [1] relates to C57BL6/J/129S5 hybrid male mice. As to the kind of experiment: Mouse study: testes size and histology after daily i.p. JQ1. How it is done:
(§1) The subsequent mixture was injected intraperitoneal into male mice at 1% of the body weight of the mouse (final amount is 50 mg/kg/day). The control was DMSO dissolved 1:10 in (2-Hydroxypropyl)-β-cyclodextrin and injected similarly. […] These studies were approved by the Administrative Committee on Laboratory Animal Care at Baylor College of Medicine, and all experiments were conducted in accordance with the NIH guide for the Care and Use of Laboratory Animals.

For data set [2] the test system is unchanged. As to the kind of experiment: Male fertility, fertilization and embryo developmental potential. How it is done:
Oocytes from these females were collected from their oviductal ampulla and cultured for 2 days to determine their developmental potential post-mating (FIG. 6B).
as §1

Procedure for BRDT(1): The N-terminal domain of human BRDT was cloned, expressed in E-Coli and purified as previously described (Filippakopoulos et al.).
Assays were performed with minor modifications from the manufacturer's protocol (PerkinElmer, USA). All reagents were diluted in 50 mM HEPES, 150 mM NaCl, 0.1% w/v BSA, 0.01% w/v Tween20, pH 7.5 and allowed to equilibrate to room temperature prior to addition to plates. After addition of Alpha beads to master solutions all subsequent steps were performed in low light conditions. […] Addition to wells was performed with either a multichannel pipet (for optimization experiments) or a Biotek EL406 liquid handler. After a 1 minute 1000 rpm spin-down, 100 nl of compounds from stock plates were added by pin transfer using a Janus Workstation (PerkinElmer, USA). The streptavidin-coated donor beads (25 μg/ml final) were added as with previous solution in a 2×, 10 μl volume. Following this addition, the plates were sealed with foil to block light exposure and to prevent evaporation. The plates were spun down again at 1000 rpm for 1 minute.

On to `Cc1sc2c(c1C)C(c1ccc(Cl)cc1)=N[C@H](CC(=O)OC(C)(C)C)c1nnc(C)n1-2` (racemic) [(−)-JQ1], for which the “activity for BRDT(1)” value on BRDT(1) was “inactive”.
As to `Cc1sc2c(c1C)C(c1ccc(Cl)cc1)=NC(CC(=O)OC(C)(C)C)c1nnc(C)n1-2` (racemic) [JQ1, tert-Butyl 2-(4-(4-chlorophenyl)-2,3,9-trimethyl-6H-thieno[3,2-f][1,2,4]triazolo[4,3-a][1,4]diazepin-6-yl)acetate], in data set [1] (50 mg/kg/day i.p.), the “Leydig cells of the testes, histology” value is on record as “histologically normal”; the “gross testes size compared to control males” value is recorded as “grossly smaller testes”; the “testosterone-responsive seminal vesicles, gross appearance” value was “grossly normal”. Further, the testis histology result in data set [1] (50 mg/kg/day i.p., 6 weeks treatment) is “seminiferous tubule degeneration”. In addition, the “number of spermatids positive for transition protein 1 (TNP1)” value in data set [1] (immunohistochemistry of testes) is given as “reduced”. Moreover, the “crossing of the blood:testis boundary” value in data set [1] (inferred from effect on seminiferous tubule compartment) is recorded as “capable of effectively crossing the blood:testis boundary”. Further, the “mating behavior (copulation plugs)” value in data set [2] (after 5 weeks of treatment, superovulated females) is on record as “did not alter mating behavior”. Further, the “effect on impregnation of females” value in data set [2] (males treated 3 weeks, housed with 2 females each, 3 more weeks of treatment, n=3) is “contraceptive effect”. Besides, in data set [2] (within the first month following cessation of JQ1), the “treated adult male mice that sired two litters after cessation” value is recorded as 6 of 6.
